Laboratory results as given in the NIST ThermoML archive (doi:10.1021/acs.jced.7b00316).
± gives the expanded uncertainty stated by the source.

Assays:
[1] = Crystal; DTA
[2] = Molar enthalpy of transition or fusion; conditions: Crystal; DSC

Normal melting temperature [1]: 151.11 ± 1.1 °C | Molar enthalpy of transition or fusion [2]: 20.1 ± 0.91 kJ/mol
Compound: On1nnc2ccccc21 [1-benzotriazolol]
